Measurements as given in the supplement of paper PMC10307832.

Key:
Experiment in all cases: relative viability (nuclei count vs DMSO), 5 days (fraction); higher = more cells survive
Neratinib + Linsitinib = compound: CCOc1cc2ncc(C#N)c(Nc3ccc(OCc4ccccn4)c(Cl)c3)c2cc1NC(=O)/C=C/CN(C)C [Neratinib] + C[C@]1(O)C[C@@H](c2nc(-c3ccc4ccc(-c5ccccc5)nc4c3)c3c(N)nccn32)C1 [Linsitinib] (partner 1 µM)
Procedure, shortened: (§1)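 Nuclei were stained with Hoechst during a one-step fixation (final 0.05% Triton X-100, 1% formaldehyde, 1 ug/ml Hoechst) carried out 5 days after dosing, then counted on 4× images. The cells, lung cancer lines in 1536-well plates, had been dosed by pin tool the day after seeding with one drug alone or a fixed anchor-drug dose plus five library-drug doses (not always all listed) in √10 steps. Relative viability is the nuclei count in treated wells divided by that in vehicle wells, and each value is the median of duplicate plates.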

Neratinib + Pemetrexed = compound: CCOc1cc2ncc(C#N)c(Nc3ccc(OCc4ccccn4)c(Cl)c3)c2cc1NC(=O)/C=C/CN(C)C [Neratinib] + Nc1nc2[nH]cc(CCc3ccc(C(=O)N[C@@H](CCC(=O)O)C(=O)O)cc3)c2c(=O)[nH]1 [Pemetrexed] (partner 0.2 µM)
Procedure, shortened: as §1

Neratinib + Vorinostat = compound: CCOc1cc2ncc(C#N)c(Nc3ccc(OCc4ccccn4)c(Cl)c3)c2cc1NC(=O)/C=C/CN(C)C [Neratinib] + O=C(CCCCCCC(=O)Nc1ccccc1)NO [Vorinostat] (partner 1 µM)
Procedure, shortened: as §1

Neratinib + Olaparib = compound: CCOc1cc2ncc(C#N)c(Nc3ccc(OCc4ccccn4)c(Cl)c3)c2cc1NC(=O)/C=C/CN(C)C [Neratinib] + O=C(c1cc(Cc2n[nH]c(=O)c3ccccc23)ccc1F)N1CCN(C(=O)C2CC2)CC1 [Olaparib] (partner 8 µM)
Procedure, shortened: as §1

| Cell Line | relative viability (Neratinib + Linsitinib; first compound 0.01 µM) | relative viability (Neratinib + Linsitinib; first compound 0.1 µM) | relative viability (Neratinib + Linsitinib; first compound 0.3162 µM) | relative viability (Neratinib + Linsitinib; first compound 1 µM) | relative viability (Neratinib + Pemetrexed; first compound 0.01 µM) | relative viability (Neratinib + Pemetrexed; first compound 0.03162 µM) | relative viability (Neratinib + Pemetrexed; first compound 0.1 µM) | relative viability (Neratinib + Pemetrexed; first compound 0.3162 µM) | relative viability (Neratinib + Pemetrexed; first compound 1 µM) | relative viability (Neratinib + Vorinostat; first compound 0.01 µM) | relative viability (Neratinib + Vorinostat; first compound 0.03162 µM) | relative viability (Neratinib + Vorinostat; first compound 0.1 µM) | relative viability (Neratinib + Vorinostat; first compound 0.3162 µM) | relative viability (Neratinib + Vorinostat; first compound 1 µM) | relative viability (Neratinib + Olaparib; first compound 0.01 µM) | relative viability (Neratinib + Olaparib; first compound 0.03162 µM) | relative viability (Neratinib + Olaparib; first compound 0.1 µM) | relative viability (Neratinib + Olaparib; first compound 0.3162 µM) | relative viability (Neratinib + Olaparib; first compound 1 µM) | relative viability (Neratinib + Linsitinib; first compound 0.03162 µM) |
| --- | --- | --- | --- | --- | --- | --- | --- | --- | --- | --- | --- | --- | --- | --- | --- | --- | --- | --- | --- | --- |
| NCI-H23 | 0.62 | 0.486 | 0.552 | 0.398 | 0.702 | 0.641 | 0.619 | 0.664 | 0.499 | 0.699 | 0.7 | 0.641 | 0.493 | 0.491 | 0.283 | 0.284 | 0.317 | 0.328 | 0.314 | – |
| NCI-H322M | 0.752 | 0.793 | 0.486 | 0.337 | 0.642 | 0.652 | 0.598 | 0.448 | 0.371 | 0.98 | 0.859 | 0.822 | 0.524 | 0.445 | 0.715 | – | 0.785 | 0.512 | 0.415 | 0.929 |
| NCI-H358 | – | 0.264 | 0.26 | 0.205 | 0.172 | 0.161 | 0.168 | 0.133 | 0.153 | 0.659 | 0.538 | 0.282 | 0.148 | 0.106 | 0.552 | 0.569 | 0.409 | 0.238 | 0.162 | – |
| NCI-H441 | 0.585 | 0.469 | 0.267 | 0.219 | 0.256 | 0.266 | 0.261 | 0.278 | 0.248 | 0.794 | 0.817 | 0.747 | 0.777 | 0.633 | 0.57 | 0.438 | 0.488 | 0.48 | 0.417 | 0.716 |
| NCI-H460 | 0.918 | – | 0.612 | 0.222 | 0.062 | 0.0586 | 0.063 | 0.0641 | 0.0813 | 0.779 | 0.984 | 0.429 | 0.716 | 0.518 | 0.428 | 0.43 | 0.383 | 0.415 | 0.419 | 1.1 |
| NCI-H520 | 1.04 | 1.08 | 0.742 | – | 0.631 | 0.735 | – | 0.505 | – | 0.759 | 0.686 | – | 0.615 | 0.509 | 0.303 | 0.321 | – | 0.349 | 0.194 | 0.981 |
| NCI-H596 | 1.2 | 0.995 | 0.923 | 0.791 | 0.523 | 0.529 | 0.472 | 0.493 | 0.488 | 0.5 | 0.641 | 0.631 | 0.622 | 0.73 | 0.633 | 0.726 | 0.622 | 0.659 | 0.574 | 1.07 |
| NCI-H647 | 1.08 | 1.14 | 1.07 | 0.601 | 0.187 | 0.174 | 0.19 | 0.156 | 0.134 | 0.634 | 0.595 | 0.488 | 0.401 | 0.0941 | 0.426 | 0.518 | 0.4 | 0.294 | 0.263 | 1.16 |
| NCI-H650 | 1 | 1.03 | – | 0.577 | 0.98 | 1.11 | 0.932 | 0.831 | 0.773 | 0.406 | 0.399 | 0.451 | 0.403 | 0.367 | 0.39 | 0.434 | 0.372 | 0.318 | 0.392 | 0.986 |
| NCI-H661 | 0.621 | 0.499 | 0.299 | 0.197 | 0.951 | 0.947 | 0.595 | 0.704 | 0.537 | 0.866 | 0.729 | 0.583 | 0.657 | 0.445 | 0.838 | 0.743 | 0.555 | 0.605 | 0.534 | 0.536 |
| NCI-H838 | 1.06 | 0.945 | 0.819 | 0.409 | 0.247 | 0.268 | 0.242 | 0.239 | 0.243 | – | 0.794 | 0.705 | 0.735 | 0.619 | 0.762 | 0.785 | 0.798 | 0.649 | 0.399 | 1.17 |
| NCI-H1355 | 0.894 | 0.775 | 0.63 | 0.453 | 1.07 | 1.03 | 0.951 | 1.02 | 0.821 | 0.724 | 0.649 | 0.591 | 0.602 | 0.447 | 0.772 | 0.719 | 0.7 | 0.701 | 0.547 | 0.825 |
| NCI-H1395 | 1.13 | 0.991 | 1.2 | 0.619 | 1.01 | 0.982 | 0.862 | 0.877 | 0.614 | 0.846 | 0.698 | – | 0.722 | 0.595 | – | 0.491 | 0.449 | 0.469 | 0.413 | 1.24 |
| NCI-H1437 | 1.27 | – | 0.793 | 0.723 | 0.329 | 0.344 | 0.269 | 0.275 | 0.312 | 0.916 | 0.906 | 0.799 | 0.843 | 0.85 | 0.673 | 0.614 | 0.612 | 0.603 | 0.663 | 1.1 |
| NCI-H1651 | 1.13 | 0.911 | 0.747 | 0.786 | 0.619 | 0.629 | 0.565 | 0.57 | 0.516 | 0.605 | 0.582 | 0.505 | 0.508 | 0.513 | 0.183 | 0.191 | 0.185 | 0.19 | 0.193 | 0.925 |
| NCI-H1666 | 0.876 | 0.591 | 0.372 | 0.361 | 0.856 | 0.867 | 0.746 | 0.652 | 0.725 | 1.14 | 1.08 | 0.901 | 0.879 | 0.87 | 0.751 | 0.806 | 0.675 | 0.666 | 0.806 | 0.654 |
| NCI-H1734 | 0.997 | 0.814 | 0.754 | 0.646 | 0.421 | 0.467 | 0.354 | 0.432 | 0.492 | 0.997 | 0.766 | 0.743 | 0.752 | 0.6 | 0.76 | 0.694 | 0.545 | 0.525 | 0.457 | 0.925 |
